Measurements taken from article PMC7029132, “The pentose phosphate pathway of cellulolytic clostridia relies on 6-phosphofructokinase instead of transaldolase” (The Journal of Biological Chemistry, 2019).

Target: T1, rabbit aldolase (Oryctolagus cuniculus, UniProt P00883)
T1 construct: gene ALDOA; commercial native enzyme (Sigma A8811)
T1 sequence (P00883 2-364): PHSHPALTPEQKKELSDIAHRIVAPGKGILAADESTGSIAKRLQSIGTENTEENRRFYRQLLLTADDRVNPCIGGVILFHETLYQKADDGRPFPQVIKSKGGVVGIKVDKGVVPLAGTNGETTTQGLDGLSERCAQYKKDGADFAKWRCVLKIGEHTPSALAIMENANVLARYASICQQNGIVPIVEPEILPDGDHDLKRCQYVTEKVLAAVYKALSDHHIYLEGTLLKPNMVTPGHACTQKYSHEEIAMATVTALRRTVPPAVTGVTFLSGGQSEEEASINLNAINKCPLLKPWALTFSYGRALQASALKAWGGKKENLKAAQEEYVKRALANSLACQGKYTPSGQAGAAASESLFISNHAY
Assay: LC-MS time course of E4P and DHAP formation, SBP made in situ by PPi-PFK
Assay type: biochemical
Conditions: 100 mM Tris-HCl pH 7 at 55 °C, 5 mM MgCl2, 5 mM PPi, 1 mM S7P, 4 units aldolase

O=C(COP(=O)(O)O)[C@@H](O)[C@H](O)[C@H](O)[C@H](O)COP(=O)(O)O [SBP]
LC-MS time course of E4P and DHAP formation, SBP made in situ by PPi-PFK: rabbit aldolase was able to convert the formed SBP to E4P and DHAP
